The values below come from patent US20250230193A1, “CYCLIC COMPOUND HAVING SELECTIVE KRAS INHIBITORY EFFECT ON HRAS AND NRAS” (CHUGAI SEIYAKU KABUSHIKI KAISHA, priority 2022, published 2025).

For experiment [1], the target named is GDP-bound HRAS wild-type protein (Homo sapiens, UniProt P01112). Kind of experiment: Binding to HRAS by surface plasmon resonance (SPR), Single Cycle Kinetics. The conditions noted are these: KD ratio, GDP-bound HRAS wild-type vs GDP-bound KRAS wild-type, SPR. (Surface plasmon resonance follows binding to a sensor surface in real time, without labels.)
GDP-bound HRAS wild-type protein, sequence (P01112 whole entry): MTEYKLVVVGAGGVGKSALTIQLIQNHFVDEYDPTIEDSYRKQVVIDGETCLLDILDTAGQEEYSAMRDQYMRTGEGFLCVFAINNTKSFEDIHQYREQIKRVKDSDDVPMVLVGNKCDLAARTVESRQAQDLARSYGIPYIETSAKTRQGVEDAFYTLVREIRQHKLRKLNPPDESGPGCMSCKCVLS
The target in experiment [2] is GDP-bound NRAS wild-type protein (Homo sapiens, UniProt P01111). The experiment can be described thus: Binding to NRAS by surface plasmon resonance (SPR), Single Cycle Kinetics. The conditions noted are these: KD ratio, GDP-bound NRAS wild-type vs GDP-bound KRAS wild-type, SPR.
GDP-bound NRAS wild-type protein, sequence (P01111 whole entry): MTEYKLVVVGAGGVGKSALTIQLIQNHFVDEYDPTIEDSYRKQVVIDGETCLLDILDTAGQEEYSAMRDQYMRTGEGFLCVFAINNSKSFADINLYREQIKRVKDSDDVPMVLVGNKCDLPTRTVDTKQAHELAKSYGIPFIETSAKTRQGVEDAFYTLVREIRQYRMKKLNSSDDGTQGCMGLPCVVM

Regarding `CC[C@H](C)[C@@H]1NC(=O)[C@H](CC(C)C)N(C)C(=O)C[C@@H](C(=O)N2CCOCC2)N(C)C(=O)[C@H](C2CCCC2)N(C)C(=O)C2(CCC2)NC(=O)[C@@H]2[C@@H](OC)CCN2C(=O)[C@H](CCc2cc(F)c(C(F)(F)F)c(F)c2)NC(=O)CN(C)C(=O)[C@H](Cc2ccc(C(F)(F)F)cc2)N2CCCC[C@@H](C2=O)N(C)C(=O)CN(C)C1=O` [PP1075], the “HRAS/KRAS (ratio of KD value with respect to HRAS to KD value with respect to KRAS)” value in experiment [1] was “B (a compound having 3 or more and less than 10 is denoted as B)”. In experiment [2], the “NRAS/KRAS (ratio of KD value with respect to NRAS to KD value with respect to KRAS)” value is “B (a compound having 3 or more and less than 10 is denoted as B)”.
On to `CCO[C@H]1CCN2C(=O)[C@H](CCc3cc(F)c(C(F)(F)F)c(F)c3)NC(=O)CN(C)C(=O)[C@H](Cc3ccc(C(F)(F)F)cc3)N3CCCC[C@@H](C3=O)N(C)C(=O)CN(C)C(=O)[C@H]([C@@H](C)CC)NC(=O)[C@H](CC(C)C)N(C)C(=O)C[C@@H](C(=O)N3CCOCC3)N(C)C(=O)[C@H](C3CCCC3)N(C)C(=O)C3(CCC3)NC(=O)[C@H]12` [PP1076], for which, in experiment [1], the “HRAS/KRAS (ratio of KD value with respect to HRAS to KD value with respect to KRAS)” value is “B (a compound having 3 or more and less than 10 is denoted as B)”. Moreover, in experiment [2], the “NRAS/KRAS (ratio of KD value with respect to NRAS to KD value with respect to KRAS)” value is “B (a compound having 3 or more and less than 10 is denoted as B)”.
Turning to `CCCO[C@H]1CCN2C(=O)[C@H](CCc3cc(F)c(C(F)(F)F)c(F)c3)NC(=O)CN(C)C(=O)[C@H](Cc3ccc(C(F)(F)F)cc3)N3CCCC[C@@H](C3=O)N(C)C(=O)CN(C)C(=O)[C@H]([C@@H](C)CC)NC(=O)[C@H](CC(C)C)N(C)C(=O)C[C@@H](C(=O)N3CCOCC3)N(C)C(=O)[C@H](C3CCCC3)N(C)C(=O)C3(CCC3)NC(=O)[C@H]12` [PP1077], in experiment [1], the “HRAS/KRAS (ratio of KD value with respect to HRAS to KD value with respect to KRAS)” value was “B (a compound having 3 or more and less than 10 is denoted as B)”. Besides, the “NRAS/KRAS (ratio of KD value with respect to NRAS to KD value with respect to KRAS)” value in experiment [2] was “B (a compound having 3 or more and less than 10 is denoted as B)”.
Consider `CCO[C@@H]1CCN2C(=O)[C@H](CCc3cc(F)c(C(F)(F)F)c(F)c3)NC(=O)CN(C)C(=O)[C@H](Cc3ccc(C(F)(F)F)cc3)N3CCCC[C@@H](C3=O)N(C)C(=O)CN(C)C(=O)[C@H]([C@@H](C)CC)NC(=O)[C@H](CC(C)C)N(C)C(=O)C[C@@H](C(=O)N3CCOCC3)N(C)C(=O)[C@H](C3CCCC3)N(C)C(=O)C3(CCC3)NC(=O)[C@H]12` [PP1079], for which the “HRAS/KRAS (ratio of KD value with respect to HRAS to KD value with respect to KRAS)” value in experiment [1] was “B (a compound having 3 or more and less than 10 is denoted as B)”. Further, in experiment [2], the “NRAS/KRAS (ratio of KD value with respect to NRAS to KD value with respect to KRAS)” value is “B (a compound having 3 or more and less than 10 is denoted as B)”.
With `CCCO[C@@H]1CCN2C(=O)[C@H](CCc3cc(F)c(C(F)(F)F)c(F)c3)NC(=O)CN(C)C(=O)[C@H](Cc3ccc(C(F)(F)F)cc3)N3CCCC[C@@H](C3=O)N(C)C(=O)CN(C)C(=O)[C@H]([C@@H](C)CC)NC(=O)[C@H](CC(C)C)N(C)C(=O)C[C@@H](C(=O)N3CCOCC3)N(C)C(=O)[C@H](C3CCCC3)N(C)C(=O)C3(CCC3)NC(=O)[C@H]12` [PP1080], the “HRAS/KRAS (ratio of KD value with respect to HRAS to KD value with respect to KRAS)” value in experiment [1] is “B (a compound having 3 or more and less than 10 is denoted as B)”. For the same compound, the “NRAS/KRAS (ratio of KD value with respect to NRAS to KD value with respect to KRAS)” value in experiment [2] is “B (a compound having 3 or more and less than 10 is denoted as B)”.
For the compound `CCO[C@@H]1CCN2C(=O)[C@H](CCc3cc(F)c(C(F)(F)F)c(F)c3)NC(=O)CN(C)C(=O)[C@H](Cc3ccc(C(F)(F)F)cc3)N3CCCCC[C@@H](C3=O)N(C)C(=O)CN(C)C(=O)[C@H]([C@@H](C)CC)NC(=O)[C@H](CC(C)C)N(C)C(=O)C[C@@H](C(=O)N3CCOCC3)N(C)C(=O)[C@H](C3CCCC3)N(C)C(=O)C3(CCC3)NC(=O)[C@H]12` [PP1082], the “HRAS/KRAS (ratio of KD value with respect to HRAS to KD value with respect to KRAS)” value in experiment [1] was “B (a compound having 3 or more and less than 10 is denoted as B)”. Further, in experiment [2], the “NRAS/KRAS (ratio of KD value with respect to NRAS to KD value with respect to KRAS)” value was “A (a compound having 10 or more and less than 20 is denoted as A)”.
In the case of `CCCO[C@@H]1CCN2C(=O)[C@H](CCc3cc(F)c(C(F)(F)F)c(F)c3)NC(=O)CN(C)C(=O)[C@H](Cc3ccc(C(F)(F)F)cc3)N3CCCCC[C@@H](C3=O)N(C)C(=O)CN(C)C(=O)[C@H]([C@@H](C)CC)NC(=O)[C@H](CC(C)C)N(C)C(=O)C[C@@H](C(=O)N3CCOCC3)N(C)C(=O)[C@H](C3CCCC3)N(C)C(=O)C3(CCC3)NC(=O)[C@H]12` [PP1083], the “HRAS/KRAS (ratio of KD value with respect to HRAS to KD value with respect to KRAS)” value in experiment [1] is “B (a compound having 3 or more and less than 10 is denoted as B)”. For the same compound, the “NRAS/KRAS (ratio of KD value with respect to NRAS to KD value with respect to KRAS)” value in experiment [2] is “B (a compound having 3 or more and less than 10 is denoted as B)”.
For `CC[C@H](C)[C@@H]1NC(=O)[C@H](CC(C)C)N(C)C(=O)C[C@@H](C(=O)N2CCOCC2)N(C)C(=O)[C@H](C2CCCC2)N(C)C(=O)C2(CCC2)NC(=O)[C@@H]2[C@H](OC)CCN2C(=O)[C@H](CCc2cc(F)c(C(F)(F)F)c(F)c2)NC(=O)CN(C)C(=O)[C@H](Cc2ccc(C(F)(F)F)cc2)N2CCCC[C@@H](C2=O)N(C)C(=O)CN(C)C1=O` [PP1084], the “HRAS/KRAS (ratio of KD value with respect to HRAS to KD value with respect to KRAS)” value in experiment [1] was “B (a compound having 3 or more and less than 10 is denoted as B)”. In addition, the “NRAS/KRAS (ratio of KD value with respect to NRAS to KD value with respect to KRAS)” value in experiment [2] was “C (A compound having a KD ratio of 0.1 or more and less than 3 is denoted as C)”.
Regarding `CCO[C@@H]1C[C@H]2C(=O)NC3(CCC3)C(=O)N(C)[C@@H](C3CCCCC3)C(=O)N(C)[C@H](C(=O)N(C)C)CC(=O)N(C)[C@@H](CC)C(=O)N[C@@H]([C@@H](C)CC)C(=O)N(C)CC(=O)N(C)[C@H]3C/C=C\CCN(C3=O)[C@@H](Cc3ccc(C(F)(F)F)cc3)C(=O)N(C)CC(=O)N[C@@H](CCc3cc(F)c(C(F)(F)F)c(F)c3)C(=O)N2C1` [PP1086], the “HRAS/KRAS (ratio of KD value with respect to HRAS to KD value with respect to KRAS)” value in experiment [1] is “A (a compound having 10 or more and less than 20 is denoted as A)”. Also, the “NRAS/KRAS (ratio of KD value with respect to NRAS to KD value with respect to KRAS)” value in experiment [2] is recorded as “AA (a compound having 20 or more is denoted as AA)”.
Take `CCO[C@@H]1C[C@H]2C(=O)NC3(CCC3)C(=O)N(C)[C@@H]([C@@H](C)CC)C(=O)N(C)[C@H](C(=O)N(C)C)CC(=O)N(C)[C@@H](CC)C(=O)N[C@@H]([C@@H](C)CC)C(=O)N(C)CC(=O)N(C)[C@H]3C/C=C\CCN(C3=O)[C@@H](Cc3ccc(C(F)(F)F)cc3)C(=O)N(C)CC(=O)N[C@@H](CCc3cc(F)c(C(F)(F)F)c(F)c3)C(=O)N2C1` [PP1087]: the “HRAS/KRAS (ratio of KD value with respect to HRAS to KD value with respect to KRAS)” value in experiment [1] is “A (a compound having 10 or more and less than 20 is denoted as A)”. In experiment [2], the “NRAS/KRAS (ratio of KD value with respect to NRAS to KD value with respect to KRAS)” value was “A (a compound having 10 or more and less than 20 is denoted as A)”.
Turning to `CCO[C@@H]1C[C@H]2C(=O)NC3(CCC3)C(=O)N(C)[C@@H](C(C)C)C(=O)N(C)[C@H](C(=O)N(C)C)CC(=O)N(C)[C@@H](CC)C(=O)N[C@@H]([C@@H](C)CC)C(=O)N(C)CC(=O)N(C)[C@H]3C/C=C\CCN(C3=O)[C@@H](Cc3ccc(C(F)(F)F)cc3)C(=O)N(C)CC(=O)N[C@@H](CCc3cc(F)c(C(F)(F)F)c(F)c3)C(=O)N2C1` [PP1088], the “HRAS/KRAS (ratio of KD value with respect to HRAS to KD value with respect to KRAS)” value in experiment [1] is “A (a compound having 10 or more and less than 20 is denoted as A)”. In experiment [2], the “NRAS/KRAS (ratio of KD value with respect to NRAS to KD value with respect to KRAS)” value is “A (a compound having 10 or more and less than 20 is denoted as A)”.
